Patent US9994560B2, “HPTP-β inhibitors” (Aerpio Therapeutics Inc., priority 2014, dated 2018)
Values after ≈ are worked out from the molar mass of the structure shown. Values joined by “and” are separate entries in the source; they are usually repeats but may differ in a detail not shown here. Equal values may be shown once.

Assays:
[1] = system: Tie2; test: Tie2 phosphorylation, immunoprecipitation and western blot in HUVECs; type: cell-based, human; settings: HUVECs treated for 10 minutes; anti-phosphotyrosine western blot (FIG. 44)
Method: Human umbilical vein endothelial cells (HUVECs) were isolated freshly from human placenta, grown in endothelial growth medium, and used before passage 6. To evaluate the effects of the compounds on phosphorylation of Tie2 and downstream signaling molecules, cells were serum-starved in endothelial basal medium without added growth factors for 3 hours before stimulation. Cells were treated for 10 minutes with vehicle (DMSO), or compounds A, B, C, or D in DMSO. Cells were lysed in RIPA buffer (150 mM NaCl, 1% IGEPAL CA-630, 0.05% sodium deoxycholate, 0.1% SDS, 20 mM Tris-HCl at pH 7.6, 1 mM EDTA, 1 mM NaF, 1 mM sodium orthovanadate, 5 mM benzamidine) plus complete protease inhibitor cocktail tablets. […] Whole cell lysates were used to quantify phospho-AKT with the PathScan Phospho-Akt1 (Ser473) Sandwich ELISA Kit according to the manufacturer's instructions. Relative AKT phosphorylation in each experiment was quantified by OD450.
FIG. 44 is a western blot of Tie2 immunoprecipitated from endothelial cells treated with DMSO control or the indicated compounds (D, C, B, or A), and then sequentially probed with an anti-Tie2 antibody to detect total Tie2 (lower blot) and an anti-phosphotyrosine antibody to detect phosphorylated Tie2 (upper blot). […] An increase in Tie2 phosphorylation compared to the DMSO control was not detected for compounds A, B, and C.

[2] = system: Akt phosphorylation, a measure of Tie2 activation; test: Akt phosphorylation ELISA (PathScan Phospho-Akt1 (Ser473) Sandwich ELISA) in HUVECs; type: cell-based, human; settings: 10 minutes
Method: Human umbilical vein endothelial cells (HUVECs) were isolated freshly from human placenta, grown in endothelial growth medium, and used before passage 6. To evaluate the effects of the compounds on phosphorylation of Tie2 and downstream signaling molecules, cells were serum-starved in endothelial basal medium without added growth factors for 3 hours before stimulation. Cells were treated for 10 minutes with vehicle (DMSO), or compounds A, B, C, or D in DMSO. Cells were lysed in RIPA buffer (150 mM NaCl, 1% IGEPAL CA-630, 0.05% sodium deoxycholate, 0.1% SDS, 20 mM Tris-HCl at pH 7.6, 1 mM EDTA, 1 mM NaF, 1 mM sodium orthovanadate, 5 mM benzamidine) plus complete protease inhibitor cocktail tablets. Tie2 was then immunoprecipitated from cell lysates with a mouse monoclonal antibody (clone 33) and probed sequentially with mouse monoclonal anti-phosphotyrosine (clone 4G10) and anti-Tie2 (clone 33). Whole cell lysates were used to quantify phospho-AKT with the PathScan Phospho-Akt1 (Ser473) Sandwich ELISA Kit according to the manufacturer's instructions. Relative AKT phosphorylation in each experiment was quantified by OD450.
FIG. 45 represents data from an ELISA to determine Akt phosphorylation, a measure of Tie2 activation. Consistent with FIG. 44, compound D had the strongest effect on Tie2 activation, as determined by the high levels (OD450=1.2) of relative Akt phosphorylation even at the lowest dose of compound D (1 μg/mL). […] Akt phosphorylation further increased (OD450=0.45) when 10 μg/mL of compound A was used.

[3] = system: human subjects with visual acuity loss due to diabetic macular edema; test: Study of human subjects with diabetic macular edema given the compound subcutaneously, then intravitreal anti-VEGF agent; type: in vivo
Method: Described herein is a study of four human subjects with visual acuity loss due to diabetic macular edema (central retinal thickness [CRT] of more than 325 microns and best corrected visual acuity less than 70 letters) that were treated with subcutaneous injections of 5 mg of 4-{(S)-2-[(S)-2-methoxycarbonyl-amino]-3-phenylpropanamido]-2-[2-(thiophen-2-yl)thiazol-4-yl]ethyl}phenylsulfamic acid twice a day for 28 days. […] At any time during the course of the study, investigators could administer additional therapy of intravitreal injection of an anti-VEGF agent, for example, ranibizumab, bevacizumab, and/or aflibercept, if considered by the investigator to be medically necessary. Retinal thickness as measured by ocular coherence tomography and best-corrected visual acuity as measured by a standard vision test (ETDRS) were assessed at regular intervals during the 28 day active treatment phase and through the 2 month post-treatment observation phase, (Screening, Day 1 [baseline], Day 7, Day 14, Day 21, Day 28, Day 42, Day 56 and Day 84). The main efficacy outcomes for the study were change in CRT and visual acuity over time with treatment.
FIG. 47 depicts the results of a study wherein 4 patients received 5 mg of 4-{(S)-2-[(S)-2-methoxycarbonylamino]-3-phenylpropanamido]-2-[2-(thiophen-2-yl)thiazol-4-yl]ethyl}phenylsulfamic acid subcutaneously twice daily for 28 days and subsequently were treated in one or both eyes (7 eyes total) with either ranibizumab (0.3 or 0.5 mg) or aflibercept (2 mg) by intravitreal injection at the discretion of the study investigator.
FIG. 49 depicts the increased visual acuity of a study wherein 4 patients received 5 mg of 4-{(S)-2-[(S)-2-methoxycarbonylamino]-3-phenylpropanamido]-2-[2-(thiophen-2-yl)thiazol-4-yl]ethyl}phenylsulfamic acid subcutaneously twice daily for 28 days, and subsequently were treated with either ranibizumab (0.3 or 0.5 mg) or aflibercept (2 mg) by intravitreal injection at the discretion of the study investigator. FIG. 49 is read as follows. […] The mean change in Visual Acuity was 9 letters, approximately 3 to 5 letters more improvement than seen in the benchmark study of ranibizumab alone depicted in FIG. 48.
FIG. 50 represents the results of a single patient. The eye having the greater Central Foveal Thickness (CFT) was chosen as the study eye. From day 1, the patient was given 5 mg of 4-{(S)-2-[(S)-2-methoxycarbonylamino]-3-phenylpropanamido]-2-[2-(thiophen-2-yl)thiazol-4-yl]ethyl}phenylsulfamic acid subcutaneously twice daily. At week 3 (21 days, indicated by arrow) the fellow eye was treated with 0.5 mg of ranibizumab by injection. At week 6 (42 days, indicated by arrow) the study eye was treated with 0.5 mg of ranibizumab.
FIG. 51 represents the results of a single patient. The eye having the greater CFT was chosen as the Study Eye. The patient from day one was given 5 mg of 4-{(S)-2-[(S)-2-methoxycarbonylamino]-3-phenylpropanamido]-2-[2-(thiophen-2-yl)thiazol-4-yl]ethyl}phenylsulfamic acid subcutaneously twice daily. At week 4 (28 days, indicated by arrow) the fellow eye was rescued with 2 mg of aflibercept. […] At week 6 (42 days, indicated by arrow) the study eye was rescued with 2 mg of aflibercept. […] From onset of the study, a reduction was observed of CFT in the study eye and the fellow eye of approximately 300 μm and 280 μm, respectively.

[4] = Room temperature aqueous solubility with solubilizing agents; type: physicochemical
From the text: The room temperature aqueous solubility (mg/mL) of the compound (4-{(S)-2[(S)-2-methoxycarbonylamino]-3-phenylpropanamido]-2-[2-(thiophen-2-yl)thiazol-4-yl]ethyl}phenylsulfamic acid) in water, HPβCD, Poloxamer 407, and sulfobutylether-β-cyclodextrin, is provided in TABLE III. Solubility in saline for the test compound is reduced presumably due to the common ion effect. All the solubilizing agents tested provided good improvements in aqueous solubility of the test compound.
The solubility (mg/mL) of the test compound in mixtures of HPβCD and PEG400 is illustrated in TABLE IV. Use of either HPβCD or PEG400 individually provided an increase in solubility. However, addition of PEG400 to a mixture of the test compound and HPβCD caused an erosion of solubility, with solubility being inversely proportional to the amount of PEG400.

COC(=O)N[C@@H](Cc1ccccc1)C(=O)N[C@@H](Cc1ccc(NS(=O)(=O)O)cc1)c1csc(-c2cccs2)n1 [Compound D]
Tie2 phosphorylation compared to the DMSO control [1]: substantial increase | relative Akt phosphorylation (OD450) ([2]; 1 μg/mL): 1.2 | relative Akt phosphorylation (OD450) ([2]; 3 μg/mL): 3.1 | relative Akt phosphorylation (OD450) ([2]; 10 μg/mL): did not increase further | Central Foveal Reduction, individual patient eyes ([3]; 5 mg sc twice daily 28 days, then ranibizumab or aflibercept intravitreal, 14-28 days post anti-VEGF (FIG. 47), listed as 4-{(S)-2-[(S)-2-methoxycarbonylamino]-3-phenylpropanamido]-2-[2-(thiophen-2-yl)t): 50-100 μm and 150-200 μm and 200-250 μm and 300-350 μm and 350-400 μm and 450-500 μm | improvement of visual acuity ([3]; 5 mg subcutaneously twice a day for 28 days, observed days 28 through 84): Improvement of visual acuity in these subjects was observed | reduction in Central Foveal Thickness relative to ranibizumab injection in the study in FIG. 46 ([3]; compound sc then anti-VEGF versus ranibizumab alone): approximately double | fall in CFT of the fellow eye ([3]; single patient (FIG. 50), 5 mg sc twice daily, fellow eye given 0.5 mg ranibizumab at week 3, by week 4): 350 μm | reduction in CFT in the study eye ([3]; single patient (FIG. 50), day 21 to day 28, after ranibizumab to fellow eye): approximately 250 μm | CFT of the study eye ([3]; single patient (FIG. 50), week 6, before ranibizumab to study eye): approximately 775 μm | CFT of the study eye ([3]; single patient (FIG. 50), week 8): approximately 225 μm | reduction of CFT in the fellow eye from onset of the study ([3]; single patient (FIG. 51)): ~280 μm | Solubility ([4]; 0% HPβCD, 15% PEG400): 30 mg/mL (≈ 51.1 mM) | Solubility ([4]; 0% HPβCD, 30% PEG400): 68 mg/mL (≈ 116 mM) | Solubility ([4]; 15% HPβCD, 0% PEG400): 59 mg/mL (≈ 101 mM) | Solubility ([4]; 15% HPβCD, 5% PEG400): 57 mg/mL (≈ 97.2 mM) | Solubility ([4]; 15% HPβCD, 10% PEG400): 34 mg/mL (≈ 57.9 mM) | Solubility ([4]; 15% HPβCD, 15% PEG400): 6 mg/mL (≈ 10.2 mM)
